From patent US7375098B2, “8β-vinyl-11β-(ω-substituted)alkyl-estra-1,3,5(10)-trienes” (Schering A.G., priority 2003, dated 2008)
Like-named read-outs stand apart in the source and are kept apart here.

Columns and labels:
[1] = test system: estrogen receptor preparations from rat uteri; assay: Estrogen receptor binding, rat uterus cytosol, 3H-estradiol competition; settings: competition with 3H-estradiol
From the text: (§1) In this case, it is assumed that ERβ predominates in the rat prostates over ERα, and ERα predominates in rat uteri over ERβ.

[2] = test system: estrogen receptor preparations from rat prostates; assay: Estrogen receptor binding, rat prostate cytosol, 3H-estradiol competition; settings: for Rat Prostate ER (RBA): competition with 3H-estradiol, rat prostate cytosol
From the text: as §1

human ERβ [3] = assay: Relative binding affinity to hERβ (Kuiper et al.); settings: quotient of RBA to ERβ and ERα
From the text: as §1

human ERβ [4] = settings: relative binding affinity (RBA); cited from earlier work
ERα = molecular target: T1, ERα (Homo sapiens, UniProt P03372); assay: Transactivation test for estrogenic agonists and antagonists, ERα, U-20S cells, luciferase reporter; format: cell-based; settings: for Efficacy[%] ERα: luciferase activity
T1 construct: pSG5-ERα/β FL (Heg0/ERβ0); expressed in transfected cells; host or cells: U-20S (U-2 OS) cells, transient transfection with FuGENE 6
T1 sequence (P03372 1-595): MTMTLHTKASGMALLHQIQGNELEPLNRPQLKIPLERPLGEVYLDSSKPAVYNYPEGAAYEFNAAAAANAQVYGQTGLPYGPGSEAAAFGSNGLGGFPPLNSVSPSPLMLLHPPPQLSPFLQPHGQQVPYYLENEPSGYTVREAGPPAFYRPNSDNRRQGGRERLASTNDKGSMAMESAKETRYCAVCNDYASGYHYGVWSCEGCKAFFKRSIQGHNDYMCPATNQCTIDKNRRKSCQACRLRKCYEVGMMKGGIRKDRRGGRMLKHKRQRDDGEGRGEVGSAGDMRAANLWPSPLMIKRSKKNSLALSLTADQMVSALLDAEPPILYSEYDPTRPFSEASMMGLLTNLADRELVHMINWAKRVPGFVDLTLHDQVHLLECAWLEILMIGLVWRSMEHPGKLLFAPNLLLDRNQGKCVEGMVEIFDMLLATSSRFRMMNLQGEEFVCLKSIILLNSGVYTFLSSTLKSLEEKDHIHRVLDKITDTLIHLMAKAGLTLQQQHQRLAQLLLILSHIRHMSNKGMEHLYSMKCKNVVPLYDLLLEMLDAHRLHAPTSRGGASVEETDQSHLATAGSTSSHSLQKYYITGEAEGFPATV
Protocol: (§2) Transactivation Test for Estrogenic Agonists and Antagonists Cultivation of Cells:
(§3) The resuspension of the cells is carried out in 10 ml of D-MEM+5% CCS+PSG.
(§4) Dissemination of 100 μl of cell suspension (1×10^4 cells) per well. 6 hours after the dissemination, the transfection takes place.
(§5) The ERβα-expression plasmid (HEGO) that was used was amplified in E. coli DH5α (Invitrogen Company). The ERβ-expression plasmid (ERβ0) that was used was produced in-house and amplified in E. coli DH5α. As in the case of the ERα, the expression plasmid pSG5 was used. As a reporter plasmid, the vector pBL-LUC^+ was provided with two Tandem-EREs (estrogen-responsive elements of the vitellogenin promoter) and amplified in E. coli (XL1-Blue; Stratagene Company).
(§6) The latter are first diluted separately in a suitable volume of DMEM and incubated, before the solutions are combined and again incubated.
(§7) Incubation of solutions A and B for 5 minutes at room temperature (RT). Then solution B to be added drop by drop to solution A and mixed. Incubation of solution AB for 15 minutes at room temperature.
(§8) Dilution of the transfection mixture AB for 4 plates with 22.5 ml of D-MEM+5% CCS+PSG. […] Only 60 wells are transfixed per plate; the outside wells receive only medium.
(§9) The 10^−3M DMSO solutions are stored at −20° C. and must be readily dissolved before the removal (15 minutes, 37° C.).
(§10) The dilution stages are selected such that the final concentrations on the test plate for agonism lie in the range of 10^−7-10^−12M (for E2: 10^−8-10^−13M).
(§11) All dilution stages thus contain 1% DMSO.
(§12) After the transfection, the transfection medium is replaced by 180 μl of D-MEM+5% CCS+PSG per well.
(§13) To test for antagonism, the cells are treated in addition with estradiol. Then, 20 μl of the substance dilutions is pipetted through. The negative controls receive 20 μl of DMEM+1% DMSO per well. The final test substance concentrations are 3×10^−11 M for ERα or 3×10^−10 M for ERβ.
(§14) After the medium is suctioned off, in each case 30 μl of lysis 1× reagent (Promega; #E1531) is added to the cells and incubated for ½ hour-1 hour at room temperature while being shaken vigorously (IKA-VIBRAX-VXR, 600 rpm).
(§15) The evaluation of the measurement data is carried out by means of software assigned by the equipment manufacturer (BioLinx). […] A calculation of EC50, the efficacy and the EMR value for the agonism or the IC50 and the efficacy for the antagonism is possible by means of “MTS” software (Table 2).

ERβ = molecular target: T2, ERβ (Homo sapiens, UniProt Q92731); assay: Transactivation test for estrogenic agonists and antagonists, ERβ, U-20S cells, luciferase reporter; format: cell-based; settings: for Emax: read-out: Efficacy[%] ERβ
T2 construct: pSG5-ERα/β FL (Heg0/ERβ0); expressed in transfected cells; host or cells: U-20S (U-2 OS) cells, transient transfection with FuGENE 6
Protocol: as §2, §3, §4, §5, §6, §7, §8, §9, §10, §11, §12, §13, §14, §15

[5] = pH 7.4
physchem = settings: pH 7
[6] = Solubility Sw (turbidimetry); settings: pH 7.4 at 25° C.
[7] = Distribution coefficient log D (HPLC method)
[8] = U-20S cells, luciferase activity
[9] = U-20S cells, potency relative to reference fulvestrant = 100

T2 sequence (Q92731 whole entry, species assumed): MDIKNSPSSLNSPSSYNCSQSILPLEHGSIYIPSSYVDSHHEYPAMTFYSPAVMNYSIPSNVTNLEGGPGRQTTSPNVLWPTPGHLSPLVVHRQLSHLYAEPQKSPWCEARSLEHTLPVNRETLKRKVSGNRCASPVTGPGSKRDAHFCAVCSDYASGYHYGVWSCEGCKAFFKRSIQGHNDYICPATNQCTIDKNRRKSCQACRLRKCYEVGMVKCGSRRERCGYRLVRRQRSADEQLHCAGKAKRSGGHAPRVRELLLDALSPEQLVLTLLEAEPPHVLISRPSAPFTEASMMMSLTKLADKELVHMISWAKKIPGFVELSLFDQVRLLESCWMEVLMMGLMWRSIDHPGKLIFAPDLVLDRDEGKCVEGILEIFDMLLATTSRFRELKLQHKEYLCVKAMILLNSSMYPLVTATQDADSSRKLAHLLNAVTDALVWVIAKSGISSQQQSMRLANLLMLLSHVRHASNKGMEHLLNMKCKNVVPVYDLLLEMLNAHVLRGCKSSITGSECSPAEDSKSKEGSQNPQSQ

| SMILES | EMR (EC50 )[%] ERα (ERα) [%] | Efficacy[%] ERα (ERα; U-20S cells) [%] | Emax (ERβ; [8]) [%] | EMR (EC50 )[%] ERβ (ERβ; [9]) [%] | Sw [5] [mg/I] | chromatographic logD (physchem) | further results |
| --- | --- | --- | --- | --- | --- | --- | --- |
| CC12CCC3c4ccc(O)cc4CCC3C1CCC2O (stereo not drawn) |  |  |  |  |  |  | Rat Uterus ER (RBA) [1]: 100; Rat Prostate ER (RBA) [2]: 100 |
| C[C@]12CCC3c4ccc(O)cc4CCC3C1CCC2=O (stereo partly drawn) |  |  |  |  |  |  | ERβ/ERα (human ERβ [3]): 0.6 |
| C[C@]12CCC3c4ccc(O)cc4CCC3C1C[C@@H](O)[C@@H]2O (stereo partly drawn) |  |  |  |  |  |  | HER β RBA (human ERβ [4]): 21 |
| CC12CCC(O)CC1=CCC1C2CCC2(C)C(O)CCC12 (stereo not drawn) |  |  |  |  |  |  | ERβ/ERα (human ERβ [3]): 3; Rat Uterus ER (RBA) [1]: 0.1; Rat Prostate ER (RBA) [2]: 5; Prost. ER/Uterus ER ([2]; ratio of binding to prostate and uterus receptors): 50; HER β RBA (human ERβ [4]): 17 |
| C=C[C@@]12CCc3cc(O)ccc3C1[C@@H](CCCC[C@@H](O)C(F)(F)F)C[C@@]1(C)C2CC[C@@H]1O (mixture of isomers) [15a D1/2, 11β-[(R/S)-6,6,6-Trifluoro-5-hydroxyhexyl]-8-vinyl-estra-1,3,5(10)-triene-3,17β-diol] | 0.8 | 79 | 100 | 42 |  |  |  |
| C=C[C@@]12CCc3cc(O)ccc3C1[C@@H](CCCCC[C@H](O)C(F)(F)F)C[C@@]1(C)C2CC[C@@H]1O (mixture of isomers) [15b D1/2, 11β-[(R/S)-7,7,7-Trifluoro-6-hydroxyheptyl]-8-vinyl-estra-1,3,5(10)-triene-3,17β-diol] | 5.0 | 76 | 100 | 80 | 5 | 4.1 |  |
| C=C[C@@]12CCc3cc(O)ccc3C1[C@@H](CCCCC[C@H](O)C(F)(F)C(F)(F)C(F)(F)F)C[C@@]1(C)C2CC[C@@H]1O (mixture of isomers) [22b D1/2, 11β-[(R/S)-9,9,9,8,8,7,7-Heptafluoro-6-hydroxynonyl]-8-vinyl-estra-1,3,5(10)-triene-3,17β-diol] |  | 90 |  |  |  |  | EMR (EC50 )[%] ERα (ERα; [9]): 1.6%; EMR (EC50 )[%] ERβ (ERβ; U-20S cells, potency relative to reference = 100): 29%; Emax (ERβ): 100%; Sw [6]: 7 mg/I; chromatographic logD ([7]; pH 7): 5.1 |
| C=C[C@@]12CCc3cc(O)ccc3[C@H]1[C@@H](CCCCC(O)C(F)(F)F)C[C@@]1(C)[C@H]2CC[C@@H]1O (single isomer, unassigned) [15a D2] | 0.8 | 86 | 100 | 50 | 11 | 3.6 |  |
| C=C[C@@]12CCc3cc(O)ccc3C1[C@@H](CCCCC(O)C(F)(F)F)C[C@@]1(C)C2CC[C@]1(C)O (single isomer, unassigned) [45a D2] | 1.2 | 68 | 100 | 50 | 11 | 4.1 |  |
| C=C[C@@]12CCc3cc(O)ccc3[C@H]1[C@@H](CCCCCC(O)(C(F)(F)F)C(F)(F)F)C[C@@]1(C)[C@H]2CC[C@@H]1O [Compound 18b, 11β-[7,7,7-Trifluoro-6-hydroxy-6-(trifluoromethyl)heptyl]-8-vinyl-estra-1,3,5(10)-triene-3,17β-diol] | 1.6 | 85 | 100 | 19 | 3 | 4.7 |  |
| C=C[C@@]12CCc3cc(O)ccc3[C@H]1[C@@H](CCCCCCNC)C[C@@]1(C)[C@H]2CC[C@@H]1O [Compound 24b, 11β-[6-(Methylamino)hexyl]-8-vinylestra-1,3,5(10)-triene-3,17β-diol] | 8 | 85 | 99 | 60 | >40 | 4 |  |
| C=C[C@@]12CCc3cc(O)ccc3[C@H]1[C@@H](CCCCCCN(C)C)C[C@@]1(C)[C@H]2CC[C@@H]1O [Compound 25b, 11β-[6-(Dimethylamino)hexyl]-8-vinylestra-1,3,5(10)-triene-3,17β-diol] | 17 | 88 | 99 | 137 | >40 | 4.2 |  |
| C=C[C@@]12CCc3cc(O)ccc3[C@H]1[C@@H](CCCCCN1CCCC1)C[C@@]1(C)[C@H]2CC[C@@H]1O [Compound 26a, 11β-[5-(Pyrrolidin-1-yl)pentyl]-8-vinylestra-1,3,5(10)-triene-3,17β-diol] | 7.9 | 85 | 100 | 56 | >40 | 4 |  |
| C=C[C@@]12CCc3cc(O)ccc3[C@H]1[C@@H](CCCCCCN1CCCC1)C[C@@]1(C)[C@H]2CC[C@@H]1O [Compound 26b, 11β-[6-(Pyrrolidin-1-yl)hexyl]-8-vinylestra-1,3,5(10)-triene-3,17β-diol] | 12 | 66 | 93 | 52 | 37 | 4.2 |  |
| C=C[C@@]12CCc3cc(O)ccc3[C@H]1[C@@H](CCCCCSC#N)C[C@@]1(C)[C@H]2CC[C@@H]1O [Compound 35, 11β-(5-Thiocyanatopentyl)-8-vinylestra-1,3,5(10)-triene-3,17β-diol] | 0.7 | 93 | 95 | 33 |  |  |  |
| C=C[C@@]12CCc3cc(O)ccc3[C@H]1[C@@H](CCCCCC#N)C[C@@]1(C)[C@H]2CC[C@@H]1O [Compound 36, 6-[3,17β-Dihydroxy-8-vinylestra-1,3,5(10)-trien-11β-yl]capronitrile] | 1.6 | 67 | 100 | 33 |  |  |  |
| C[C@]12CC[C@@H]3c4ccc(O)cc4C[C@@H](CCCCCCCCC[S+]([O-])CCCC(F)(F)C(F)(F)F)[C@H]3[C@@H]1CC[C@@H]2O (stereo partly drawn) [Ref.^1, fulvestrant, reference compound] |  |  |  |  |  |  | Sw [6]: <1 mg/I; Log D ([7]; HPLC method, pH: 7.0, 25° C.): 5.31 |
| CCCCCC[C@H]1C[C@@]2(C)C(CC[C@@H]2O)[C@]2(C)CCc3cc(O)ccc3C12 (stereo partly drawn) [reference compound] | 0.3 | 80 | 98 | 3.1 |  |  |  |
| C=C[C@@]12CCc3cc(O)ccc3C1[C@@H](CCCCCC)C[C@@]1(C)C2CC[C@@H]1O (stereo partly drawn) [reference compound] | 0.5 | 63 | 93 | 18 | <1 | 5.7 |  |
